Source: US20230398228A1, “ERIBULIN-BASED ANTIBODY-DRUG CONJUGATES AND METHODS OF USE” (EISAI R&D MANAGEMENT CO., LTD., priority 2016, published 2023)
Like-named read-outs stand apart in the source and are kept apart here.

Columns and labels:
SJSA-1 cells = test: Crystal Violet cytotoxicity assay (Examples 1 and 2), SJSA-1
Experimental: (§1) Typically, test reagents were serial diluted 1:4 in 2 mL deep-well dilution plates, starting at 1 μM (10 dilutions total). 100 μL of diluted samples were added to the cell plates (starting concentration of test samples at 500 nM). […] Medium was discarded, plates were washed once with 200 μL DPBS, stained with 50 μL of 0.2% Crystal Violet solution at room temperature for 15 min, and then washed extensively with tap water. Plates were air-dried, and Crystal Violet was dissolved with 200 μL of 1% SDS solution. Plates were read at 570 nm. Data was analyzed using GraphPad Prism 6. Assays were performed using a seeding density of 1,000 cells per well and compound exposure was for a total of 5 days. When shorter-term exposure was desired, medium containing cytotoxic agents was removed after 4 hours and replaced with fresh growth medium prior to 5-day incubation. For OVCAR3, CaOV3, and NCI-H2110, cells were seeded at 3,000 cells/well and incubated for 5 days with ADC.
In vitro potency of prepared ADCs was assessed using a Crystal Violet assay as detailed in section 1.4.1.
(§2) SJSA-1 cells are a human osteosarcoma tumor cell line that are negative for folate receptor alpha.
(§3) Typically, test reagents were serially-diluted 1:4 in 2 mL deep-well dilution plates, starting at 1 μM (10 dilutions total). 100 μL of diluted samples were added to the cell plates (starting concentration of test samples at 100 nM). […] Medium was discarded, plates were washed once with 200 μL DPBS, stained with 50 μL of 0.2% Crystal Violet solution at room temperature for 15 min, and then washed extensively with tap water. Plates were air-dried, and Crystal Violet was dissolved with 200 μL of 1% SDS solution. Plates were read at 570 nm. Data was analyzed using GraphPad Prism 6.

NCI-H2110 cells = details: Example 1
Experimental: as §1, §2, §3

OVCAR3 cells = test: Crystal Violet cytotoxicity assay (Examples 1 and 2), OVCAR3; details: Example 1
Experimental: as §1, §2
Typically, test reagents were serially-diluted 1:4 in 2 mL deep-well dilution plates, starting at 1 μM (10 dilutions total). 100 μL of diluted samples were added to the cell plates (starting concentration of test samples at 100 nM). […] Plates were read at 570 nm. Data was analyzed using GraphPad Prism 6.

[1] = test system: human BM-MSCs co-cultured with MKN-74 cells; test: 3D co-culture system (rStomach, zPredicta), MSC differentiation by flow cytometry; format: cell-based; details: 7 days treatment, MORAb-202 10 nM, MORAb-003 10 nM, eribulin […] and 0.2 nM (Table 41)
Experimental: All mesenchymal stem cell (MSC)-containing 3D co-culture experiments were conducted in zPredicta, using organ-specific 3D extracellular matrix systems such as rStomach™. Bone marrow mesenchymal stem cells (BM-MSCs) in rStomach™ were co-cultured with the Nuc Red Light MKN-74 gastric cancer cell line in quadruplicate in 48-well format for 12 days. […] Prior to culture, BM-MSCs were evaluated for target antigen expression and for markers of MSC differentiation (Table 40) by flow cytometry.
Controls included untreated and vehicle-treated (PBS and DMSO) cultures. MSC differentiation was monitored by light microscopy. Once visible differentiation was observed, samples were harvested for staining and flow cytometry analysis.
Bone marrow mesenchymal stem cells (BM-MSCs) in rStomach™ (zPredicta) were co-cultured with the MKN-74 gastric cancer cell line for 12 days. […] Once visible MSC differentiation was observed by light microscopy, samples were harvested for staining and flow cytometry analysis.

ZR-75 cells = test: Crystal Violet cytotoxicity assay (Example 4), ZR-75; format: cell-based, human
Experimental: Test reagents were serial diluted 1:3 in 2 mL deep-well dilution plates, starting at 200 nM (10 dilutions total). […] Medium was then discarded. […] Plates were read at 570 nm. Data was analyzed using GraphPad Prism 6.

[2] = test system: OD-BRE-0631 TNBC patient-derived xenograft; details: 5 mg/kg single dose, five days post-treatment
[3] = test system: cancer associated fibroblasts (α-smooth muscle actin) in H2110 xenograft; details: 5 mg/kg single dose
Experimental: Prior to staining, slides were dewaxed and antigen was retreived in a Lab Vision™ PT Module (Thermo Scientific), in citrate buffer (pH 6.0) pre-warmed to 85° C., using the following program: warm to 97° C.; incubate at 97° C. for 30 min; and cool to 60° C. Slides were then transferred to double distilled water at room temperature for 5 min. Staining was performed in a Lab Vision™ Autostainer 360 (Thermo Scientific). Briefly, slides were washed twice in 1×Tris-buffered saline/Tween-20 (TBST) for 6 min/wash. Tissue sections were then incubated in blocking buffer (300 μL) (10% goat serum (Jackson Immunoresearch Laboratory Inc., Cat No. 005-000-121) diluted in 3% bovine serum albumin (BSA)-phosphate buffered saline (PBS)) for 1 hour, incubated in conjugated antibody (200 μL) (Table 38) for 1 hour, and washed five times in 1×TBST for 6 min/wash. Slides were counterstained with DAPI in mounting media, and coverslipped slides were allowed to harden for 30 min. Slides were processed on a Panoramic MIDI scanner (3[sequence]), and IHC images were analyzed using Halo software (Indica Labs).
Collected tumor samples were processed on slides, and cancer associated fibroblast (CAF) expression was analyzed by IHC.

## MORAb-003-maleimido-PEG2-Val-Cit-pAB-eribulin [MORAb-202]
SJSA-1 cells; Example 1 screening
  killing of FR-negative SJSA-1 cells (off-target), in words: little killing
SJSA-1 cells; read-out: Cytotoxicity (IC50) SJSA-1, SJSA-1 cells, mean of replicate experiments, where performed
  IC50: > 100 nM
SJSA-1 cells; read-out: cytotoxicity (EC50) on SJSA-1 cells, Example 2
  EC50: > 100 nM
NCI-H2110 cells
  cytotoxicity on NCI-H2110 cells, in words: potent cytotoxicity
NCI-H2110 cells; read-out: IC50 on NCI-H2110
  IC50: 0.73 nM
OVCAR3 cells
  cytotoxicity on OVCAR3 cells, in words: potent cytotoxicity
[1]; PBS 14.6%
  Percentage of live cells, Pericytes: 11.4%
[1]; PBS […]
  Percentage of live cells, Adipocytes: 22.6%
  Percentage of live cells, MSCs: 43.7%
ZR-75 cells
  cytotoxicity on ZR-75 cells, in words: little killing
[2]
  cancer associated fibroblast structure by anti-α-SMA-FITC IHC, in words: diminish the structure of cancer associated fibroblasts
  tumor cell occupation by IHC with anti-human IgG antibody, in words: occupies folate receptor alpha-expressing tumor cells
[3]; Day 3 and Day 5
  CAF network structure (anti-α-SMA-FITC staining), in words: prominent
[3]; by Day 7
  CAF network structure (anti-α-SMA-FITC staining), in words: significantly diminished
